According to patent US20070264330A1 (priority 2006, published 2007):

Tests used:
[1] = Excipient compatibility study with crystalline Form A: HPLC assay of % drug; format: physicochemical
Protocol: Physical mixtures of crystalline Form A and fourteen processing excipients, gelatin and hydroxypropyl methylcellulose capsules, and drug substance alone were prepared. […] Each sample group was stored under the following conditions: 5° C. (for time=0 testing), 40° C./75% RH (relative humidity) one month, and 40° C./75% RH three months. Bulk drug substance was weighed and added to a sample vial. De-ionized water was then measured (0.015 mL) and added to the vials designated as wet samples. The wet samples were then mixed using a vortex mixer for approximately 15 seconds to incorporate the water and the drug. Excipient was then weighed and added to appropriate vials. The contents of each vial were mixed for approximately 15 seconds using a vortex mixer to produce a uniform mixture of (wet or dry) drug/excipient. To prepare the capsule samples, the bulk drug substance was weighed directly into the capsule. The capsules were then placed into appropriate vials. Fifteen microliters of de-ionized water was added to the inside of capsules designated as wet samples. All samples were stored in 20 mL Type I clear glass scintillation vials with foil-lined screw-type vial caps were tightened by hand. Samples were stored in controlled room temperature/humidity until ready for testing. Other sample vials were stored at 40° C./75% RH unprotected from light and tested at one and three months. […] The vials were rinsed several times with diluent and added to the volumetric flasks. The contents of the capsules were transferred to 50 mL volumetric flasks and the capsule shells were also rinsed with diluent. Diluent was added to the volumetric flasks and they were sonicated for 10 minutes, then diluted to volume with diluent. The solutions were further diluted 5.0 mL into a 50 mL volumetric flask and brought to volume with diluent. These diluted solutions were used for the assay. All solutions were filtered through 0.45 micron PTFE filters, with the first 1-2 mL discarded before filling the HPLC autosampler vials. The diluted sample solutions were assayed against a reference standard of drug product prepared in a similar manner.

[2] = Excipient compatibility study with crystalline Form A: Total Related Substance (TRS); format: physicochemical
Protocol: Binary mixtures of drug with each excipient were prepared by physically mixing 50.0 mg (±2.0 mg) of drug substance with the specified proportion of each excipient. The stability of the drug in the presence of each excipient was studied in dry samples as well as with 30% w/w (relative to bulk drug weight) de-ionized water. Each sample group was stored under the following conditions: 5° C. (for time=0 testing), 40° C./75% RH (relative humidity) one month, and 40° C./75% RH three months.

[3] = Solubility in water of the tartrate salt; format: physicochemical; conditions: tartrate salt versus compound of formula I
Description: The tartrate salt of pimavanserin may be prepared as an integrated part of the process for synthesizing the compound as described above by using tartaric acid as the salt forming acid. Alternatively, the tartrate salt may be formed by reaction of the isolated compound of formula I with tartaric acid.

[4] = In vivo human and non-human animal studies
[5] = wet conditions (30% w/w water added)

CC(C)COc1ccc(CNC(=O)N(Cc2ccc(F)cc2)C2CCN(C)CC2)cc1.CC(C)COc1ccc(CNC(=O)N(Cc2ccc(F)cc2)C2CCN(C)CC2)cc1.O=C(O)C(O)C(O)C(=O)O [#17 Drug Substance]
% Drug One Month 40° C./75% RH ([1]; dry conditions): 94.9%
% Drug Three Months 40° C./75% RH ([1]; dry conditions): 95.9%
% Drug (time = 0) ([1]; dry conditions): 98.4%
% Drug One Month 40° C./75% RH [1, 5]: 91.2%
% Drug Three Months 40° C./75% RH [1, 5]: 93.5%
% Drug (time = 0) [1, 5]: 98.5%
Total related substance, 1 month - Dry ([2]; dry, 1 month 40° C./75% RH): 1.38
Total related substance, 3 month - Dry ([2]; dry, 3 month 40° C./75% RH): 2.72
Total related substance, Time 0 - Dry ([2]; dry, time 0): 0.35
Total related substance, 1 month - Wet ([2]; wet (30% w/w water), 1 month 40° C./75% RH): 1.67
Total related substance, 3 month - Wet ([2]; wet (30% w/w water), 3 month 40° C./75% RH): 3.39
Total related substance, Time 0 - Wet ([2]; wet (30% w/w water), time 0): 0.36

tartrate salt of N-(4-fluorobenzyl)-N-(1-methylpiperidin-4-yl)-N′-(4-(2-methylpropyloxy)phenylmethyl)carbamide [pimavanserin tartrate]
solubility in water [3]: improved solubility in water

CC(C)COc1ccc(CNC(=O)N(Cc2ccc(F)cc2)C2CCN(C)CC2)cc1 [pimavanserin, N-(1-methylpiperidin-4-yl)-N-(4-fluorophenylmethyl)-N′-(4-(2-methylpropyloxy)phenylmethyl)carbamide]
in vivo activity [4]: anti-psychotic, anti-dyskinesia, and anti-insomnia activity
